We go through 20 compounds from patent publication US20210309595A1, “COMPOSITION FOR FORMING OPTICAL COMPONENT, OPTICAL COMPONENT, COMPOUND, AND RESIN” (Mitsubishi Gas Chemical Company, Inc., priority 2018, published 2021).

Holding throughout (assay type): physicochemical
A short description of data set [1]: Solubility test in organic solvent (amount of dissolution). The conditions noted are these: amount of dissolution in propylene glycol monomethyl ether, 23° C., ultrasonic waves 30 minutes, visual observation. On the procedure:
With respect to the solubility of each compound in an organic solvent, the solubility of the compound in propylene glycol monomethyl ether was measured. The solubility was evaluated according to the following criteria, using the amount of dissolution in propylene glycol monomethyl ether. For the measurement of the amount of dissolution, the evaluation was carried out by precisely weighing the compound in a test tube at 23° C., […], applying ultrasonic waves for 30 minutes with an ultrasonic cleaning machine, visually observing the subsequent state of the liquid, and determining the concentration of the completely dissolved amount as the basis.

A short description of data set [2]: Refractive index of optical component forming film (spectroscopic ellipsometer). Conditions: wavelength 633 nm; 1000 nm film from 5% by mass composition, baked 110° C. 60 seconds. On the procedure: (§1) The compositions for forming optical components were each prepared so that the amount of the compound shown in the following table was 5% by mass in propylene glycol methyl ether. Next, a silicon substrate was spin coated with each of these compositions for forming an optical component, and then baked at 110° C. for 60 seconds to prepare an optical component forming film each having a film thickness of 1000 nm.
(§2) Then, tests for the refractive index and the transparency at a wavelength of 633 nm were carried out by using a vacuum ultraviolet with variable angle spectroscopic ellipsometer (model name: VUV-VASE) manufactured by J.A. Woollam Japan, and the refractive index and the transparency were evaluated.

A short description of data set [3]: Transparency (absorption coefficient) of optical component forming film. Conditions: absorption coefficient at wavelength 633 nm; 1000 nm film, baked 110° C. 60 seconds. On the procedure: as §1, §2
A short description of data set [4]: Film heat resistance (visual defects after baking). More on the design: key: A: No visual defects in the film; C: Visual defects in the film (including the loss of films). The conditions noted are these: film baked at 110° C. for 5 minutes. The procedure: as §1
The optical component forming film was baked at 110° C. for 5 minutes to evaluate the film heat resistance.

The structures appear in SMILES notation.

For the compound `Oc1ccc2ccc(O)c(C(c3ccc4ccccc4c3)c3c(O)ccc4ccc(O)cc34)c2c1` [BiN-1U], the Solubility test result in data set [1] is recorded as “A (5.0% by mass≤amount of dissolution)”. Also, the “Evaluation of refractive index” value in data set [2] is on record as “A (The refractive index is 1.75 or more.)”. Besides, in data set [3], the Evaluation of transparency entry is on record as “A (The absorption coefficient is less than 0.03.)”. In addition, the “Evaluation of film heat resistance” value in data set [4] is reported as “A”.
In the case of `c1ccc2cc(C3c4c(ccc5ccc(OCC6CO6)cc45)Oc4ccc5ccc(OCC6CO6)cc5c43)ccc2c1` (centres unmarked) [BiN-1-G], the Solubility test result in data set [1] was “A (5.0% by mass≤amount of dissolution)”. Further, in data set [2], the “Evaluation of refractive index” value is on record as “A (The refractive index is 1.75 or more.)”. The Evaluation of transparency result in data set [3] is “A (The absorption coefficient is less than 0.03.)”. In addition, the “Evaluation of film heat resistance” value in data set [4] was “A”.
In the case of `C#CCOc1ccc2ccc3c(c2c1)C(c1ccc2ccccc2c1)c1c(ccc2ccc(OCC#C)cc12)O3` [BiN-1-Pr], the Solubility test entry in data set [1] was “A (5.0% by mass≤amount of dissolution)”. For the same compound, in data set [2], the “Evaluation of refractive index” value was “A (The refractive index is 1.75 or more.)”. For the same compound, the Evaluation of transparency entry in data set [3] is on record as “A (The absorption coefficient is less than 0.03.)”. In data set [4], the “Evaluation of film heat resistance” value is given as “A”.
Turning to `Oc1cc2ccccc2c(C(c2ccc3ccccc3c2)c2c(O)c(O)cc3ccccc23)c1O` [BiN-5U], the Solubility test result in data set [1] was “A (5.0% by mass≤amount of dissolution)”. The “Evaluation of refractive index” value in data set [2] was “A (The refractive index is 1.75 or more.)”. Besides, the Evaluation of transparency entry in data set [3] is recorded as “A (The absorption coefficient is less than 0.03.)”. Moreover, the “Evaluation of film heat resistance” value in data set [4] is recorded as “A”.
`CC1(c2ccc3ccccc3c2)c2c(ccc3ccc(O)cc23)Oc2ccc3ccc(O)cc3c21` [BiN-4]: in data set [1], the Solubility test result is “A (5.0% by mass≤amount of dissolution)”. Besides, the “Evaluation of refractive index” value in data set [2] is reported as “A (The refractive index is 1.75 or more.)”. Moreover, the Evaluation of transparency result in data set [3] is “A (The absorption coefficient is less than 0.03.)”. Also, the “Evaluation of film heat resistance” value in data set [4] is recorded as “A”.
With `C=Cc1ccc(COc2ccc3ccc4c(c3c2)C(c2ccc3ccccc3c2)c2c(ccc3ccc(OCc5ccc(C=C)cc5)cc23)O4)cc1` [BiN-1-SX], the Solubility test result in data set [1] is given as “A (5.0% by mass≤amount of dissolution)”. For the same compound, the “Evaluation of refractive index” value in data set [2] is on record as “A (The refractive index is 1.75 or more.)”. In addition, in data set [3], the Evaluation of transparency result is reported as “A (The absorption coefficient is less than 0.03.)”. Besides, the “Evaluation of film heat resistance” value in data set [4] was “A”.
The like results for `C=Cc1ccc(COCCOc2ccc3ccc4c(c3c2)C(c2ccc3ccccc3c2)c2c(ccc3ccc(OCCOCc5ccc(C=C)cc5)cc23)O4)cc1` [BiN-1-SE] were, in that order, “A (5.0% by mass≤amount of dissolution)”, “A (The refractive index is 1.75 or more.)”, “A (The absorption coefficient is less than 0.03.)” and “A”.
Turning to `C=CCOc1ccc2c3c(ccc2c1)Oc1ccc2cc(OCC=C)ccc2c1C3c1ccc2ccccc2c1` [BiN-3-AL], the Solubility test result in data set [1] is listed as “A (5.0% by mass≤amount of dissolution)”. The “Evaluation of refractive index” value in data set [2] is “A (The refractive index is 1.75 or more.)”. Moreover, in data set [3], the Evaluation of transparency result is recorded as “A (The absorption coefficient is less than 0.03.)”. For the same compound, the “Evaluation of film heat resistance” value in data set [4] is on record as “A”.
With `c1ccc2cc(C3c4c(ccc5ccc(OCCOCC6CO6)cc45)Oc4ccc5ccc(OCCOCC6CO6)cc5c43)ccc2c1` (centres unmarked) [BiN-1-GE], the Solubility test entry in data set [1] is listed as “A (5.0% by mass≤amount of dissolution)”. In addition, the “Evaluation of refractive index” value in data set [2] was “A (The refractive index is 1.75 or more.)”. Moreover, in data set [3], the Evaluation of transparency result is recorded as “A (The absorption coefficient is less than 0.03.)”. Further, in data set [4], the “Evaluation of film heat resistance” value was “A”.
Regarding `OCCOc1ccc2ccc3c(c2c1)C(c1ccc2ccccc2c1)c1c(ccc2ccc(OCCO)cc12)O3` [BiN-1-E], the Solubility test entry in data set [1] is “A (5.0% by mass≤amount of dissolution)”. In data set [2], the “Evaluation of refractive index” value was “B (The refractive index is 1.65 or more and less than 1.75.)”. Besides, the Evaluation of transparency entry in data set [3] is on record as “A (The absorption coefficient is less than 0.03.)”. Moreover, in data set [4], the “Evaluation of film heat resistance” value is “A”.
Regarding `C=CC(=O)Oc1ccc2ccc3c(c2c1)C(c1ccc2ccccc2c1)c1c(ccc2ccc(OC(=O)C=C)cc12)O3` [BiN-1-Ac], in data set [1], the Solubility test entry is recorded as “A (5.0% by mass≤amount of dissolution)”. The “Evaluation of refractive index” value in data set [2] is “B (The refractive index is 1.65 or more and less than 1.75.)”. Moreover, the Evaluation of transparency entry in data set [3] is “A (The absorption coefficient is less than 0.03.)”. For the same compound, the “Evaluation of film heat resistance” value in data set [4] was “A”.
In the case of `Oc1ccc(Oc2ccc3ccc4c(c3c2)C(c2ccc3ccccc3c2)c2c(ccc3ccc(Oc5ccc(O)cc5)cc23)O4)cc1` [BiN-1-PX], the Solubility test entry in data set [1] is given as “A (5.0% by mass≤amount of dissolution)”. Also, the “Evaluation of refractive index” value in data set [2] was “A (The refractive index is 1.75 or more.)”. Further, in data set [3], the Evaluation of transparency entry was “A (The absorption coefficient is less than 0.03.)”. In addition, the “Evaluation of film heat resistance” value in data set [4] is reported as “A”.
For `Oc1ccc2c(C(c3ccc4ccccc4c3)c3c(O)ccc4cc(O)ccc34)c(O)ccc2c1` [BiN-3U], in that order: “A (5.0% by mass≤amount of dissolution)”, “A (The refractive index is 1.75 or more.)”, “A (The absorption coefficient is less than 0.03.)” and “A”.
`C=C(C)C(=O)OCC(O)COc1ccc2ccc3c(c2c1)C(c1ccc2ccccc2c1)c1c(ccc2ccc(OCC(O)COC(=O)C(=C)C)cc12)O3` (centres unmarked) [BiN-1-Ea]: in data set [1], the Solubility test result is recorded as “A (5.0% by mass≤amount of dissolution)”. Moreover, in data set [2], the “Evaluation of refractive index” value is “B (The refractive index is 1.65 or more and less than 1.75.)”. Further, in data set [3], the Evaluation of transparency entry is on record as “A (The absorption coefficient is less than 0.03.)”. For the same compound, the “Evaluation of film heat resistance” value in data set [4] was “A”.
For `CC(C)(C)OC(=O)COc1ccc2c3c(ccc2c1)Oc1ccc2cc(OCC(=O)OC(C)(C)C)ccc2c1C3c1ccc2ccccc2c1` [BiN-3-MeBOC], the Solubility test result in data set [1] is listed as “A (5.0% by mass≤amount of dissolution)”. For the same compound, in data set [2], the “Evaluation of refractive index” value was “B (The refractive index is 1.65 or more and less than 1.75.)”. Further, the Evaluation of transparency result in data set [3] is “A (The absorption coefficient is less than 0.03.)”. In addition, the “Evaluation of film heat resistance” value in data set [4] was “A”.
In the case of `Oc1ccc2ccc3c(c2c1)C(c1cccc2ccccc12)c1c(ccc2ccc(O)cc12)O3` [BiN-2], the Solubility test result in data set [1] is “A (5.0% by mass≤amount of dissolution)”. Further, the “Evaluation of refractive index” value in data set [2] is “A (The refractive index is 1.75 or more.)”. Further, the Evaluation of transparency entry in data set [3] was “A (The absorption coefficient is less than 0.03.)”. For the same compound, the “Evaluation of film heat resistance” value in data set [4] is listed as “A”.
Turning to `Oc1ccc2ccc3c(c2c1)C(c1ccc2ccccc2c1)c1c(ccc2ccc(O)cc12)O3` [BiN-1], the Solubility test result in data set [1] is “A (5.0% by mass≤amount of dissolution)”. Further, the “Evaluation of refractive index” value in data set [2] is on record as “A (The refractive index is 1.75 or more.)”. Further, the Evaluation of transparency result in data set [3] was “A (The absorption coefficient is less than 0.03.)”. In data set [4], the “Evaluation of film heat resistance” value is given as “A”.
On to `Oc1ccc2c3c(ccc2c1)Oc1ccc2cc(O)ccc2c1C3c1ccc2ccccc2c1` [BiN-3], for which, in data set [1], the Solubility test entry is given as “A (5.0% by mass≤amount of dissolution)”. For the same compound, the “Evaluation of refractive index” value in data set [2] is on record as “A (The refractive index is 1.75 or more.)”. Also, the Evaluation of transparency entry in data set [3] is on record as “A (The absorption coefficient is less than 0.03.)”. Besides, the “Evaluation of film heat resistance” value in data set [4] is reported as “A”.
The like results for `Oc1ccc(CCOc2ccc3ccc4c(c3c2)C(c2ccc3ccccc3c2)c2c(ccc3ccc(OCCc5ccc(O)cc5)cc23)O4)cc1` [BiN-1-PE] were, in that order, “A (5.0% by mass≤amount of dissolution)”, “A (The refractive index is 1.75 or more.)”, “A (The absorption coefficient is less than 0.03.)” and “A”.
With `C=C(C)C(=O)OCCC(N)C(=O)Oc1ccc2ccc3c(c2c1)C(c1ccc2ccccc2c1)c1c(ccc2ccc(OC(=O)C(N)CCOC(=O)C(=C)C)cc12)O3` (centres unmarked) [BiN-1-Ua], the Solubility test entry in data set [1] is recorded as “A (5.0% by mass≤amount of dissolution)”. In data set [2], the “Evaluation of refractive index” value is “B (The refractive index is 1.65 or more and less than 1.75.)”. Also, the Evaluation of transparency result in data set [3] is given as “A (The absorption coefficient is less than 0.03.)”. For the same compound, the “Evaluation of film heat resistance” value in data set [4] is “A”.
